These results are taken from patent US7361633B2, “Screening method and anti-tumor drug candidate obtained therefrom” (Ardana Bioscience Limited, priority 2002, dated 2008).

One test relates to BPH-1 cells. Nature of the test: Annexin V-FITC staining of extracellular phosphatidylserine (apoptosis) in BPH-1 cells. In kind it is cell-based, human. The conditions noted are these: 48 h. How it is done:
All twelve panels depict either phase contrast (1, 4, 7, 10), confocal laser microscope (2, 5, 8, 11) or phase contrast/confocal merged images (3, 6, 9, 12). Panels 1 to 3 depict untreated control JEG-3 cells for cells in panels 4 to 6 which have been treated with GnRH I (100 nM) for 24 h. All cells have been exposed while live to an annexin V recombinant protein conjugated to the FITC fluorophore. The annexin V will bind specifically only to phosphatidlyserine (PS) lipids usually only expressed on the intracellular side of the plasma membrane lipid bilayer. An early sign of apoptosis is the translocation of these PS lipids from the intracellular side of the membrane to the outer aspect of the bilayer. […] The cellular levels of caspase 3 and procaspase 3 were assessed by specific immunoblotting of JEG-3 or BPH-1 whole cell (w-c) lysates from cells stimulated continuously with GnRH I for the times depicted. […]
(§1) Thus we have shown that upon continuous GnRH ligand stimulation of either JEG-3 or BPH-1 there is a retardation of cell growth, however we were interested as to whether there was any genuine induction of cellular apoptosis recently reported to occur in several tumour cell lines (Soon et al (2002) J. Clin. Endocrinol. Metab. 87, 4580-4586). […] Initially we measured the effects of GnRH stimulation upon the ultrastructural integrity of the cells plasma membrane. […]

The subject of a further test is JEG-3 cells. Nature of the test: Annexin V-FITC staining of extracellular phosphatidylserine (apoptosis) in JEG-3 cells. To be noted: for extracellular annexin-V-reactive phosphatidylserine: 100 nM. In kind it is cell-based, human. How it is done:
All twelve panels depict either phase contrast (1, 4, 7, 10), confocal laser microscope (2, 5, 8, 11) or phase contrast/confocal merged images (3, 6, 9, 12). Panels 1 to 3 depict untreated control JEG-3 cells for cells in panels 4 to 6 which have been treated with GnRH I (100 nM) for 24 h. All cells have been exposed while live to an annexin V recombinant protein conjugated to the FITC fluorophore. The annexin V will bind specifically only to phosphatidlyserine (PS) lipids usually only expressed on the intracellular side of the plasma membrane lipid bilayer. An early sign of apoptosis is the translocation of these PS lipids from the intracellular side of the membrane to the outer aspect of the bilayer. […] Panels 10 to 12 depict cells exposed to GnRH I for 48 h while panels 7 to 9 serve as unstimulated contemporaneous controls. […] The cellular levels of caspase 3 and procaspase 3 were assessed by specific immunoblotting of JEG-3 or BPH-1 whole cell (w-c) lysates from cells stimulated continuously with GnRH I for the times depicted.
A similar experimental approach was employed for the transfer of this study to BPH-1 cells, however as the MAPK under study in these cells was p38α much lower dose of SB203580 (1 μM) could be employed as the compound has a much greater inhibitory potency against p38 compared to JNK.
as §1, with “membrane. A well documented early event in apoptosis is a reversal in the polarity of many plasma membrane molecules such as phosphatidylserine (PS). At an early stage of cellular apoptosis there is a significant translocation of PS from the inner to the outer envelope of the plasma membrane.” for “membrane.”

Test [1] deals with Type II GnRHRs cloned from several species. To be noted: Ott et al (2002); cited from earlier work.
The subject of test [2] is caspase 3 and procaspase 3. Briefly: Caspase 3 / procaspase 3 immunoblot of BPH-1 whole cell lysates. In kind it is cell-based, human. To be noted: BPH-1 cells, continuous stimulation, time course. How it is done: (§2) All twelve panels depict either phase contrast (1, 4, 7, 10), confocal laser microscope (2, 5, 8, 11) or phase contrast/confocal merged images (3, 6, 9, 12). Panels 1 to 3 depict untreated control JEG-3 cells for cells in panels 4 to 6 which have been treated with GnRH I (100 nM) for 24 h. All cells have been exposed while live to an annexin V recombinant protein conjugated to the FITC fluorophore. The annexin V will bind specifically only to phosphatidlyserine (PS) lipids usually only expressed on the intracellular side of the plasma membrane lipid bilayer. An early sign of apoptosis is the translocation of these PS lipids from the intracellular side of the membrane to the outer aspect of the bilayer. […] The cellular levels of caspase 3 and procaspase 3 were assessed by specific immunoblotting of JEG-3 or BPH-1 whole cell (w-c) lysates from cells stimulated continuously with GnRH I for the times depicted.
as §1

Test [3] concerns caspase 3 and procaspase 3. Briefly: Caspase 3 / procaspase 3 immunoblot of JEG-3 whole cell lysates. In kind it is cell-based, human. To be noted: JEG-3 cells, 100 nM continuously, time course. How it is done: as §2, §1
On the technique in general: A western blot detects proteins with antibodies after separation by electrophoresis.

The test system of another test is Gαi-type G protein. Nature of the test: Inhibition of forskolin-stimulated cAMP accumulation in BPH-1 cells. In kind it is cell-based, human. The conditions noted are these: for FSK-stimulated intracellular cAMP accumulation after ligand pre-exposure: 100 nM, pre-exposure 10, 30, 60 minutes; for effect of PTX on ligand-mediated inhibition of FSK-stimulated cAMP accumulation: 60 minute pre-exposure, PTX 200 ng/ml 16 h. The source says:
In both BPH-1 and JEG-3 cells GnRH and Ant 135-25 can antagonize forskolin (FSK) stimulated intracellular cAMP accumulation. Panels a and b respectively depict the effects of FSK, GnRH I and Ant 135-25 upon intracellular levels of cAMP in BPH-1 and JEG-3 cells measured using a calorimetric Biomol cAMP assay kit. […] Each histogram in panels a to d depicts the mean±s.e. mean of three to four experimental replicates of the cAMP accumulation assay.
Thus we noted that when cyclic adenosine monophosphate levels (cAMP) were measured using a commercially available […] assay system (Biomol) the ability of forskolin (1 μM in JEG-3 and 3 μM in BPH-1, sufficient to give a 50% Rmax response in each case) was blunted with extended cellular pre-treatment times (10 to 60 minutes) with either 100 nM GnRH I or Ant 135-25 (FIG. 9, panel a-BPH, panel b-JEG). […] Therefore it appears that both ligands can efficiently activate the adenylate cyclase inhibitory activity of Gαi in both cell models tested.

Another test deals with Type I GnRHR. Nature of the test: Binding affinity for Type I GnRHR (data not shown).
A further test addresses T1, Type II GnRHR (Callithrix jacchus, UniProt Q95MG6).
T1 sequence (Q95MG6 1-380): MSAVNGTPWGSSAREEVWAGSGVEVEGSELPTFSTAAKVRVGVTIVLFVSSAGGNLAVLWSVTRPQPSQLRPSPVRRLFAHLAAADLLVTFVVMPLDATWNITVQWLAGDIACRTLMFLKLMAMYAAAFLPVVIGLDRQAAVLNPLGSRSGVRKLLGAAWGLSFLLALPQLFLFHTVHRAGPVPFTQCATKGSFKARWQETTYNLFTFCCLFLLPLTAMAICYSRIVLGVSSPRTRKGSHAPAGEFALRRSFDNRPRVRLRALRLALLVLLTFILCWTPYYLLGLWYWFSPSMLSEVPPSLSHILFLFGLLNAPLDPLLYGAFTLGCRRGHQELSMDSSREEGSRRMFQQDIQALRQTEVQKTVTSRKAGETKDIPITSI
Nature of the test: Binding affinity for Type II GnRHR (data not shown).

“Also recorded” adds a separate entry of the source.

With `C[S+]([O-])c1ccc(-c2nc(-c3ccncc3)c(-c3ccc(F)cc3)[nH]2)cc1` (stereo not drawn) [SB203580], the “effect on GnRH I-induced annexin V-FITC staining (pro-apoptotic state)” value was “prevented GnRH from inducing a pro-apoptotic state in the BPH-1 cells; also recorded: almost completely abrogated” in the test with BPH-1 cells (1 μM SB203580 with GnRH I) and “significant reduction in extent of cells entering a pro-apoptotic state; also recorded: significant reduction in the degree of annexin-V-FITC staining” with JEG-3 cells (20 μM SB203580 with 100 nM GnRH I, 48 h).

On to “Ac-D-Nal(2)-D-4-ClPhe-D-Pal-Ser-Ile-D-IsopropylLys-Leu-IsopropylLys-Pro-D -AlaNH2 [Ant 135-18]”, for which, in test [1], the “partial agonistic activity upon Type II GnRHRs cloned from several species” value is recorded as “high degree of partial agonistic activity”.

With “GnRH I: Gonadotropin-Releasing Hormone, a decapeptide; the original form of GnRH, re-named GnRH I”, the “cellular levels of pro-caspase 3 and cleaved caspase-3” value in test [2] was “enhanced expression of the pro-apoptotic proteases cleaved-caspase 3 and procaspase 3; also recorded: more rapid onset on the generation of cleaved caspase-3”. Besides, in the test on BPH-1 cells, the “extracellular annexin-V-reactive phosphatidylserine” value is reported as “Identical results; also recorded: significant induction of annexin-V-FITC reactivity on the outer plasma membrane envelope”. Also, the “extracellular annexin-V-reactive phosphatidylserine” value with JEG-3 cells (24 h) was “no significant expression of annexin-V-reactive PS on the extracellular surface of the plasma membrane”. In the test on JEG-3 cells (48 h), the “extracellular annexin-V-reactive phosphatidylserine” value is given as “significant expression of extracellular annexin-V-reactive PS; also recorded: cells begin to become anti-annexin V-FITC immunoreactive; also recorded: considerable amount of external membrane annexin-V-reactive PS”. Also, in test [3], the “cellular level of cleaved (active) caspase-3” value is “enhanced expression of the pro-apoptotic proteases cleaved-caspase 3 and procaspase 3; also recorded: only significantly evident between 48-72 h”; the “cellular level of pro-caspase 3” value is “enhanced expression of the pro-apoptotic proteases cleaved-caspase 3 and procaspase 3; also recorded: significant elevation in the cellular levels of pro-caspase 3 evident from 24-48 h”. In addition, in the test on Gαi-type G protein, the “FSK-stimulated intracellular cAMP accumulation after ligand pre-exposure” value is “significantly reduced; also recorded: blunted” and the “effect of PTX on ligand-mediated inhibition of FSK-stimulated cAMP accumulation” value was “can be specifically inhibited with a 16 h pre-incubation of the cells with 200 ng/ml of PTX; also recorded: attenuated by a 16 h pre-treatment with 200 ng/ml PTX”.

For “Ac-D-Nal(2)-D-4-ClPhe-D-Pal-Ser-1-MePal-D-IsopropylLys-Leu-IsopropylLys-Pro-D-AlaNH2 [Ant 135-25]”, in the test on Type I GnRHR, the “binding affinity for Type I GnRHR” value is on record as “high binding affinity”. Moreover, the “binding affinity for Type II GnRHR” value at Type II GnRHR is “high binding affinity”. In the test with Gαi-type G protein, the “FSK-stimulated intracellular cAMP accumulation after ligand pre-exposure” value is given as “significantly reduced; also recorded: blunted” and the “effect of PTX on ligand-mediated inhibition of FSK-stimulated cAMP accumulation” value is recorded as “can be specifically inhibited with a 16 h pre-incubation of the cells with 200 ng/ml of PTX; also recorded: attenuated by a 16 h pre-treatment with 200 ng/ml PTX”.
